The values that follow come from US9493444B2 (Merck Patent GmbH, priority 2012, dated 2016).

In general, IC50 refers to the concentration that inhibits the measured activity by half. Low readings indicate inhibition by little substance, high ones a need for much substance.

This assay relates to Wnt pathway (TCF-dependent transcription in HEK293 luciferase reporter cell line with ER-DSH construct). The experiment in a line: Cellular assay for Wnt pathway activity (luciferase reporter). In kind it is cell-based. The following applies: Homo sapiens; Wnt pathway inhibition, HEK293 luciferase reporter cells (ER-DSH, TCF promoter), 24 hours incubation, estrogen-induced. In short, it runs like this: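 Compounds (30 μM down to 1 nM) were incubated 24 h on cells induced for TCF-dependent transcription with estrogen. Luciferase activity was read by luminescence, normalized to untreated vehicle control, and fitted for IC50.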
A general note: In a reporter assay the amount or activity of a reporter protein is the signal.
Take `CC(=O)N(C)CCN(C)c1cncc(Oc2ccc(-c3nccs3)cc2)n1` [Compound 158, N-Methyl-N-(2-{methyl-[6-(4-thiazol-2-yl-phenoxy)-pyrazin-2-yl]-amino}-ethyl)-acetamide]: the IC50 was below 200 nM. Take `CC(=O)N(C)CCN(C)c1cncc(Oc2ccc(Cc3ncc(C(F)(F)F)cc3Cl)cc2)n1` [Compound 159, N-[2-({6-[4-(3-Chloro-5-trifluoro-methyl-pyridin-2-ylmethyl)-phenoxy]-pyrazin-2-yl}-methyl-amino)-ethyl]-N-methyl-acetamide]: the IC50 lay in the range of 200 to 1000 nM. `CC(=O)N(C)CCN(C)c1cncc(Oc2ccc(-c3cccc(C)n3)cc2)n1` [Compound 160, N-Methyl-N-[2-(methyl-{6-[4-(6-methyl-pyridin-2-yl)-phenoxy]-pyrazin-2-yl}-amino)-ethyl]-acetamide] returned an IC50 below 200 nM. As to `CC(=O)N(C)CCN(C)c1cncc(Oc2ccc(-c3ncccn3)cc2)n1` [Compound 161, N-Methyl-N-(2-{methyl-[6-(4-pyrimidin-2-yl-phenoxy)-pyrazin-2-yl]-amino}-ethyl)-acetamide], the IC50 lay in the range of 200 to 1000 nM.

In the case of `CC(=O)N(C)CCN(C)c1cncc(Oc2ccc(-c3ccc(C(F)(F)F)cn3)cc2)n1` [Compound 162, N-Methyl-N-[2-(methyl-{6-[4-(5-trifluoro-methyl-pyridin-2-yl)-phenoxy]-pyrazin-2-yl}-amino)-ethyl]-acetamide], the IC50 fell in the range of 200 to 1000 nM.

The compound `COc1ccc(-c2ccc(Oc3cncc(N(C)CCN(C)C(C)=O)n3)cc2)nc1` [Compound 163, N-[2-({6-[4-(5-Methoxy-pyridin-2-yl)-phenoxy]-pyrazin-2-yl}-methyl-amino)-ethyl]-N-methyl-acetamide] came in with an IC50 below 200 nM.

As to `CC(=O)N(C)CCN(C)c1cncc(Oc2ccc(-c3ncccc3N3CCOCC3)cc2)n1` [Compound 164, N-Methyl-N-[2-(methyl-{6-[4-(3-morpholin-4-yl-pyridin-2-yl)-phenoxy]-pyrazin-2-yl}-amino)-ethyl]-acetamide], the IC50 fell in the range of 1000 to 10000 nM. In the case of `CC(=O)N(C)CCN(C)c1cncc(Oc2ccc(-c3ncc(O)cn3)cc2)n1` [Compound 165, N-[2-({6-[4-(5-Hydroxy-pyrimidin-2-yl)-phenoxy]-pyrazin-2-yl}-methyl-amino)-ethyl]-N-methyl-acetamide], the IC50 lay within 1000 to 10000 nM. `CC(=O)N(C)CCN(C)c1cncc(Oc2ccc(-c3cc4ccccc4cn3)cc2)n1` [Compound 166, N-(2-{[6-(4-Isoquinolin-3-yl-phenoxy)-pyrazin-2-yl]-methyl-amino}-ethyl)-N-methyl-acetamide]: the IC50 is 200 to 1000 nM. `CCc1ccnc(-c2ccc(Oc3cncc(N(C)CCN(C)C(C)=O)n3)cc2)c1` [Compound 167, N-[2-({6-[4-(4-Ethyl-pyridin-2-yl)-phenoxy]-pyrazin-2-yl}-methyl-amino)-ethyl]-N-methyl-acetamide] had an IC50 of 200 to 1000 nM. Turning to `CC(=O)N(CCN(c1cncc(Oc2ccc(F)cc2)n1)C(C)C)C(C)C` [Compound 168, N-(2-{[6-(4-Fluoro-phenoxy)pyrazin-2-yl]-isopropyl-amino}-ethyl)-N-isopropyl-acetamide], the IC50 was 200 to 1000 nM. `CC(=O)N(CCSc1cncc(Oc2ccc(-c3ccc(C)cn3)cc2)n1)C(C)C` [Compound 169, N-Isopropyl-N-(2-{6-[4-(5-methyl-pyridin-2-yl)-phenoxy]-pyrazin-2-ylsulfanyl}-ethyl)-acetamide]: the IC50 was below 200 nM. For the compound `CC(=O)N(C)CCN(C)c1cncc(Oc2ccc(-c3cccc(C(N)=O)n3)cc2)n1` [Compound 170, 6-[4-(6-{[2-(Acetyl-methyl-amino)-ethyl]-methyl-amino}-pyrazin-2-yloxy)-phenyl]-pyridine-2-carboxylic acid amide], the IC50 is below 200 nM. Take `CC(=O)Nc1cccc(-c2ccc(Oc3cncc(N(C)CCN(C)C(C)=O)n3)cc2)n1` [Compound 171, N-[2-({6-[4-(6-Acetylamino-pyridin-2-yl)-phenoxy]-pyrazin-2-yl}-methyl-amino)-ethyl]-N-methyl-acetamide]: the half-maximal inhibitory concentration (IC50) is below 200 nM. `CC(=O)N(C)CCN(C)c1cncc(Oc2ccc(-c3cc(N)ccn3)cc2)n1` [Compound 172, N-[2-({6-[4-(4-Amino-pyridin-2-yl)-phenoxy]-pyrazin-2-yl}-methyl-amino)-ethyl]-N-methyl-acetamide] registered an IC50 of 200 to 1000 nM. Turning to `CC(=O)N(C)CCN(C)c1cncc(Oc2ccc(-c3cc(N4CCN(C)CC4)ccn3)cc2)n1` [Compound 173, N-Methyl-N-{2-[methyl-(6-{4-[4-(4-methyl-piperazin-1-yl)-pyridin-2-yl]-phenoxy}-pyrazin-2-yl)-amino]-ethyl}-acetamide], the IC50 is 1000 to 10000 nM. As to `CC(=O)N(C)CCN(C)c1cncc(Oc2ccc(-c3cc(C)cc[n+]3[O-])cc2)n1` [Compound 174, N-Methyl-N-[2-(methyl-{6-[4-(4-methyl-1-oxy-pyridin-2-yl)-phenoxy]-pyrazin-2-yl}-amino)-ethyl]-acetamide], the IC50 lay in the range of 200 to 1000 nM. Compound `CC(=O)N(C)CCN(C)c1cncc(Oc2ccc(-c3ccc(N4CCOCC4)nc3)cc2)n1` [Compound 175, N-Methyl-N-[2-(methyl-{6-[4-(6-morpholin-4-yl-pyridin-3-yl)-phenoxy]-pyrazin-2-yl}-amino)-ethyl]-acetamide] displayed an IC50 below 200 nM.

`CC(=O)OCc1ccc(Oc2cncc(N(C)CCN(C)C(C)=O)n2)cc1` [Compound 176, Acetic acid 4-(6-{[2-(acetyl-methyl-amino)-ethyl]-methyl-amino}-pyrazin-2-yloxy)-benzyl ester]: the concentration for half-maximal inhibition (IC50) was below 200 nM. `CC(=O)N(C)CCN(C)c1cncc(Oc2ccc(-c3cccnc3N)cc2)n1` [Compound 177, N-[2-({6-[4-(2-Amino-pyridin-3-yl)-phenoxy]-pyrazin-2-yl}-methyl-amino)-ethyl]-N-methyl-acetamide] came in with an IC50 below 200 nM. The result for `CC(=O)N(C)CCN(C)c1cncc(Oc2ccc(C3CCC(=O)CC3)cc2)n1` [Compound 178, N-Methyl-N-[2-(methyl-{6-[4-(4-oxo-cyclohexyl)-phenoxy]-pyrazin-2-yl}-amino)-ethyl]-acetamide] reads below 200 nM. `CC(=O)N(C)CCN(C)c1cncc(Oc2ccc(C3CCC(C)CO3)cc2)n1` (stereo not shown) [Compound 179, N-Methyl-N-[2-(methyl-{6-[4-(5-methyl-tetrahydro-pyran-2-yl)-phenoxy]-pyrazin-2-yl}-amino)-ethyl]-acetamide] showed an IC50 below 200 nM.

`CCOc1ccc(-c2ccc(Oc3cncc(N(C)CCN(C)C(C)=O)n3)cc2)c(F)c1F` [Compound 180, N-(2-{[6-(4′-Ethoxy-2′,3′-difluoro-biphenyl-4-yloxy)-pyrazin-2-yl]-methyl-amino}-ethyl)-N-methyl-acetamide] gave an IC50 of 200 to 1000 nM. In the case of `CC(=O)N(C)CCN(C)c1cncc(Oc2ccc(CO)cc2)n1` [Compound 181, N-(2-{[6-(4-Hydroxymethyl-phenoxy)-pyrazin-2-yl]-methyl-amino}-ethyl)-N-methyl-acetamide], the IC50 was below 200 nM. Regarding `CC(=O)Nc1ccc(-c2ccc(Oc3cncc(N(C)CCN(C)C(C)=O)n3)cc2)cn1` [Compound 182, N-{5-[4-(6-{[2-(Acetyl-methyl-amino)-ethyl]-methyl-amino}-pyrazin-2-yloxy)-phenyl]-pyridin-2-yl}-acetamide], the IC50 was below 200 nM. In turn, `CC(=O)N(C)CCN(C)c1cncc(Oc2ccc(-c3ccc(C)nc3)cc2)n1` [Compound 183, N-Methyl-N-[2-(methyl-{6-[4-(6-methyl-pyridin-3-yl)-phenoxy]-pyrazin-2-yl}-amino)-ethyl]-acetamide] showed an IC50 below 200 nM. The value for `COc1ccc(-c2ccc(Oc3cncc(N(C)CCN(C)C(C)=O)n3)cc2)cn1` [Compound 184, N-[2-({6-[4-(6-Methoxy-pyridin-3-yl)-phenoxy]-pyrazin-2-yl}-methyl-amino)-ethyl]-N-methyl-acetamide] was below 200 nM; that for `CC(=O)N(C)CCN(C)c1cncc(Oc2ccc(-c3cnc(N)cn3)cc2)n1` [Compound 185, N-[2-({6-[4-(5-Amino-pyrazin-2-yl)-phenoxy]-pyrazin-2-yl}-methyl-amino)-ethyl]-N-methyl-acetamide] was below 200 nM. Consider `CC(=O)N(C)CCN(C)c1cncc(Oc2ccc(-c3cnc4sc(=O)[nH]c4c3)cc2)n1` [Compound 186, N-Methyl-N-[2-(methyl-{6-[4-(2-oxo-1,2-dihydro-thiazolo[5,4-b]pyridin-6-yl)-phenoxy]-pyrazin-2-yl}-amino)-ethyl]-acetamide], for which the IC50 was below 200 nM. `CCOC(=O)c1ncoc1-c1ccc(Oc2cncc(N(C)CCN(C)C(C)=O)n2)cc1` [Compound 187, 5-[4-(6-{[2-(Acetyl-methyl-amino)-ethyl]-methyl-amino}-pyrazin-2-yloxy)-phenyl]-oxazole-4-carboxylic acid ethyl ester] came in with an IC50 of 200 to 1000 nM. `CC(=O)N(C)CCOc1cncc(Oc2ccc(F)cc2)n1` [Compound 188, N-{2-[6-(4-Fluoro-phenoxy)-pyrazin-2-yloxy]-ethyl}-N-methyl-acetamide]: the IC50 fell in the range of 1000 to 10000 nM. In the case of `CNC(=O)CCCN(C)c1cncc(Oc2ccc(F)cc2)n1` [Compound 189, 4-{[6-(4-Fluoro-phenoxy)-pyrazin-2-yl]-methyl-amino}-N-methyl-butyramide], the IC50 was 1000 to 10000 nM.

The compound `CC(=O)N(C)CCN(C)c1cncc(Oc2ccc(-c3cc4cc[nH]c4cn3)cc2)n1` [Compound 190, N-Methyl-N-[2-(methyl-{6-[4-(1H-pyrrolo[2,3-c]pyridin-5-yl)-phenoxy]-pyrazin-2-yl}-amino)-ethyl]-acetamide] registered an IC50 below 200 nM. In turn, `CC(=O)N(C)CCN(C)c1cncc(Oc2ccc(-c3ncnc4[nH]ccc34)cc2)n1` [Compound 191, N-Methyl-N-[2-(methyl-{6-[4-(7H-pyrrolo[2,3-d]pyrimidin-4-yl)-phenoxy]-pyrazin-2-yl}-amino)-ethyl]-acetamide] yielded an IC50 below 200 nM.
